Reference: patent publication US7183320B2, “Benzoylsulfonamides and sulfonylbenzamidines for use as antitumour agents” (Eli Lilly and Company, priority 2002, dated 2007)

Columns and labels:
Type in all cases: in vivo
[1] = test system: TAXOL SENSITIVE HUMAN COLON ADENOCARCINOMA #15/0; assay: Early stage taxol sensitive human colon adenocarcinoma #15/0 xenograft (Table V); conditions: total dose 420 mg/kg: 140 mg/kg/injection IV on days 3, 5, and 7; Balb/C SCID female mice
Source text: (§1) Conventional Murine Tumor and Human Tumor Xenouraft Assays
(§2) Inhibition of tumors transplanted into mice is an accepted procedure for studying the efficacy of antitumor agents (Corbett, et al., In vivo Methods for Screening and Preclinical Testing; Use of rodent solid tumors for drug discovery., In: Anticancer Drug Development Guide: Preclinical Screening, Clinical Trials, and Approval, B. Teicher (ed), Humana Press Inc., Totowa, N.J., Chapter 5, pages 75–99 (1997); (Corbett, et al., Int., J. Parmacog., 33, Supplement, 102–122 (1995)). Murine tumors or human xenographs were implanted essentially as described by Corbett in In vivo Methods for Screening and Preclimical Testing; Use of rodent solid tumors for drug discovery. Briefly, the murine tumor or human xenograph was implanted subcutaneously using either 12-gauge trocar implants or counted number of cells. The location for the trocar insertion is midway between the axillary and inguinal region along the side of the mouse. The trocar is slipped approximately ¾ of an inch subcutaneously up toward the axilla before discharging the tumor fragment, and pinching the skin as the trocar is removed., Alternatively, human tumor cells prepared from a […] of donor tumors (5×10^6 cells) were implanted subcutaneously in a hind-leg of a male or female nude mouse (Charles River). Either a test compound in vehicle or vehicle alone was administered by intravenous bolus injection (iv), intraperitoneal injection (ip), or oral gavage (po). Each treatment group, as well as a group of untreated control animals, consisted of five animals per group in each experiment. Subcutaneous tumor response was monitored by tumor volume measurement performed twice each week over the course of the experiment (60–120 days). Body weights were taken as a general measure of toxicity. The subcutaneous tumor data were analyzed by determining the median tumor weight for each treatment group over the course of the experiment and calculating the tumor growth delay as the difference in days for the treatment versus the control tumors to reach a volume of either 500 or 1000 mm^3.
(§3) The compound of Example 110 was tested against a variety of murine and human tumors substantially as described supra. The parameters measured in each experiment are summarized in the following paragraphs. • Tumor Weight(mg)=(a×b^2)/2 where a=tumor length (mm) and b=tumor width (mm). • Tumor Growth Delay=T−C where T is the median time (days) required for the treatment group tumors to reach a predetermined size, and C is the median time (days) for the control group tumors to reach the same size. Tumor-free survivors are excluded from this calculation, and are tabulated separately (Tumor Free).
(§4) [formula] • where Tumor Growth Delay is as previously defined and Td is tumor volume doubling time (days), estimated from the best fit straight line from a log-linear growth plot of the control group of tumors in exponential growth (100–800 mg range) • % T/C mass—The treatment and control groups are measured when the control group tumors reach approximately 700 to 1200 mg in size (median group). The median tumor weight of each group is determined (including zeros). The T/C value in percent is an indication of antitumor effectiveness. A T/C≦42% is considered significant antitumor activity. A T/C<10% is considered to indicate highly significant antitumor activity. • Body Weight Loss Nadir—A body weight loss nadir (mean of group) of greater than 20% or drug deaths greater than 20% are considered to indicate an excessively toxic dosage in single course trials. • Activity Rating—the Activity Rating is derived from the Log Kill according to the following table: […]

[2] = test system: TAXOL RESISTANT HUMAN COLON ADENOCARCINOMA #15/MDR; assay: Early stage taxol resistant human colon adenocarcinoma #15/MDR xenograft (Table XII); conditions: total dose 500 mg/kg: 100 mg/kg/injection IV on days 3–5 and 13–14; Balb/C SCID female mice
Source text: as §1, §2, §3, §4

[3] = test system: VEGF-induced neoangiogenesis; assay: Rat corneal micropocket assay, VEGF disks; conditions: 160 mg/kg orally by gavage once per day, days 1 through 10; Fisher 344 female rats
Protocol: Rat Corneal Micropocket Assay
Fisher 344 female rats (145–155 grams; Taconic, Inc., Germantown, N.Y.) were anesthesized with acepromazine (2.5 mg/kg, ip) 20 minutes prior to initiation of 2–3% isoflurane/oxygen inhalation. The body temperature was maintained with a circulating hot water pad. The surgery was performed using an ophthalmic operating microscope (OMS.75 Operating Microscope, TopCon Corporation, Japan). A scalpel blade (#15) was used to make a vertical half-thickness linear corneal incision just lateral to the center of the eye. […] A pocket was formed in the cornea using blunt dissection with corneal scissors (Roboz, Rockville, Md.). Nitrocellulose filters ([…], Millipore, Bedford, Mass.) were cut into small disks using a 20 gauge needle punch. The disks were soaked in 2 μl of human VEGF solution ([…]; R&D Systems) or human basic fibroblast growth factor (0.20 μg/μl; R&D Systems) for 10 minutes on ice. Using forceps, the disks impregnated with the angiogenic factor (VEGF or bFGF) were inserted into the corneal pocket so that the disk is firmly covered with corneal epithelium. […] The images were analyzed by converting the area of interest to high contrast black and white reversed image and counting the bright pixels as a determination of the vascular area. […]

## O=C(NS(=O)(=O)c1ccccc1)c1ccc(Cl)cc1Cl [Example 110, N-[2,4-dichlorobenzoyl]phenylsulfonamide]
[1]
  % BODY WT LOSS AT NADIR: 0%
  % T/C MASS: 0%
  ACTIVITY RATING: ++++ (HIGHLY ACTIVE >2.8)
  DRUG DEATHS: 0/5
  GROWTH DELAY: 33.5 days
  LOG KILL: 5.0
  TUMOR FREE AT DAY 151: 1/5
[2]
  % BODY WT LOSS AT NADIR: +2.1% ^
  % T/C MASS: 10%
  ACTIVITY RATING: ++ (1.3–1.9)
  DRUG DEATHS: 0/5
  GROWTH DELAY: 11 days
  LOG KILL: 1.4
  TUMOR FREE AT DAY 38: 0/5
[3]
  inhibition of VEGF-induced neoangiogenesis: very effective inhibitor
